In patent US20100305120A1, “COMPOUNDS FOR TREATING MUSCULAR DYSTROPHY” (BIOMARIN IGA LIMITED, priority 2008, published 2010):

Test system: Utrophin A promoter linked to a luciferase reporter gene
Assay: Luciferase reporter assay (murine H2K cells), H2K/mdx/Utro A reporter cell line
Assay type: cell-based
Details: 48 h, mdx mouse H2K Utrophin A reporter cells, read-out: Activity (luciferase level relative to control); for activity at 10 µM: test compound concentration 10 μM; for activity at 3 µM: test compound concentration 3 μM
Experimental: Luciferase Reporter Assay (Murine H2K Cells)
The cell line used for the screen is an immortalized mdx mouse H2K cell line that has been stably transfected with a plasmid containing ≈5 kb fragment of the Utrophin A promoter including the first untranslated exon linked to a luciferase reporter gene.
Under conditions of low temperature and interferon containing media, the cells remain as myoblasts. These are plated into 96 well plates and cultured in the presence of compound for three days. The level of luciferase is then determined by cell lysis and reading of the light output from the expressed luciferase gene utilising a plate luminometer.
Luciferase Assay for 96 Well Plates
The H2K/mdx/Utro A reporter cell line cells were plated out into 96 well plates (Falcon 353296, white opaque) at a density of approximately 5000 cells/well in 190 μl normal growth medium. The plates were then incubated at 33° C. in the presence of 10% CO2 for 24 hrs.
Compounds were dosed by adding 10 μl of diluted compound to each well giving a final concentration of 10 μM (where a different final concentration was required, the amount of compound solution added was amended accordingly). The plates were then incubated for a further 48 hrs. Cells were then lysed in situ following the manufacture's protocols (Promega Steady-Glo Luciferase Assay System(E2520). Then counted for 10 seconds using a plate luminometer (Victor1420).
Compounds for screening were stored at −20° C. as 10 mM stocks in 100% DMSO until required.
Biological activity as assessed using the luciferase reporter assay in murine H2K cells, and the results are shown in Table 1, which also lists the concentration of the test compound solution in μM.

Compound | activity at 10 µM | also measured
COc1cccc(OCc2ccc(Cn3nc(NC(=O)Nc4ccccc4OC(F)(F)F)c4ccccc43)cc2)c1 [Compound 68, 1-(1-(4-((3-methoxyphenoxy)methyl)benzyl)-1H-indazol-3-yl)-3-(2-(trifluoromethoxy)phenyl)urea] | < 200% | 
O=C(Nc1ccc(N2CCCCC2)cc1)c1nn(Cc2ccc(-c3ccccc3)cc2)c2ccccc12 [Compound 69, 1-(biphenyl-4-ylmethyl)-N-(4-(piperidin-1-yl)phenyl)-1H-indazole-3-carboxamide] | < 200% | 
CC(C)(C)c1ccc(Cn2nc(C(=O)Nc3ccc(OC(F)(F)F)cc3)c3ccccc32)cc1 [Compound 70, 1-(4-tert-butylbenzyl)-N-(4-(trifluoromethoxy)phenyl)-1H-indazole-3-carboxamide] | < 200% | 
O=C(Nc1nccs1)c1nn(CCOc2ccccc2)c2ccccc12 [Compound 71, 1-(2-phenoxyethyl)-N-(thiazol-2-yl)-1H-indazole-3-carboxamide] | < 200% | 
O=C(NCC1CCCO1)c1nn(Cc2ccc(C(=O)N3CCOCC3)cc2)c2ccccc12 (centres unmarked) [Compound 72, 1-(4-(morpholine-4-carbonyl)benzyl)-N-((tetrahydrofuran-2-yl)methyl)-1H-indazole-3-carboxamide] | < 200% | 
COc1ccc(CCNC(=O)Nc2nn(Cc3ccc(C(F)(F)F)cc3)c3ccccc23)cc1OC [Compound 73, 1-(3,4-dimethoxyphenethyl)-3-(1-(4-(trifluoromethyl)benzyl)-1H-indazol-3-yl)urea] | < 200% | 
COc1ccc(NC(=O)c2nn(Cc3ccc(-c4ccccc4)cc3)c3ccccc23)cc1 [Compound 74, 1-(biphenyl-4-ylmethyl)-N-(4-methoxyphenyl)-1H-indazole-3-carboxamide] | < 200% | 
O=C(Nc1ccc(N2CCCCC2)cc1)c1nn(CCOc2ccccc2)c2ccccc12 [Compound 75, 1-(2-phenoxyethyl)-N-(4-(piperidin-1-yl)phenyl)-1H-indazole-3-carboxamide] | 201 to 300% | 
C#CCN(C)S(=O)(=O)c1ccc(Cn2nc(C(=O)Nc3ccc(C(N)=O)cc3)c3ccccc32)cc1 [Compound 76, N-(4-carbamoylphenyl)-1-(4-(N-methyl-N-(prop-2-ynyl)sulfamoyl)benzyl)-1H-indazole-3-carboxamide] | < 200% | 
CS(=O)(=O)c1ccc(Cn2nc(C(=O)Nc3ccccn3)c3ccccc32)cc1 [Compound 77, 1-(4-(methylsulfonyl)benzyl)-N-(pyridin-2-yl)-1H-indazole-3-carboxamide] | < 200% | 
COc1ccccc1CNC(=O)Nc1nn(Cc2cc3c(cc2Cl)OCO3)c2ccccc12 [Compound 78, 1-(1-((6-chlorobenzo[d][1,3]dioxol-5-yl)methyl)-1H-indazol-3-yl)-3-(2-methoxybenzyl)urea] | < 200% | 
CC(C)(C)c1ccc(Cn2nc(C(=O)Nc3ccc(N4CCCCC4)cc3)c3ccccc32)cc1 [Compound 79, 1-(4-tert-butylbenzyl)-N-(4-(piperidin-1-yl)phenyl)-1H-indazole-3-carboxamide] | < 200% | 
COc1ccc(CCNC(=O)Nc2nn(Cc3ccc(COc4cccc(OC)c4)cc3)c3ccccc23)cc1 [Compound 80, 1-(4-methoxyphenethyl)-3-(1-(4-((3-methoxyphenoxy)methyl)benzyl)-1H-indazol-3-yl)urea] | < 200% | 
CC(C)(C)c1ccc(NC(=O)c2nn(Cc3ccc(S(C)(=O)=O)cc3)c3ccccc23)cc1 [Compound 81, N-(4-tert-butylphenyl)-1-(4-(methylsulfonyl)benzyl)-1H-indazole-3-carboxamide] | < 200% | 
COc1ccc(NC(=O)c2nn(Cc3ccc(S(C)(=O)=O)cc3)c3ccccc23)cc1OC [Compound 82, N-(3,4-dimethoxyphenyl)-1-(4-(methylsulfonyl)benzyl)-1H-indazole-3-carboxamide] | < 200% | 
CS(=O)(=O)c1ccc(Cn2nc(C(=O)Nc3ccccc3)c3ccccc32)cc1 [Compound 83, N-phenyl-1-(4-(methylsulfonyl)benzyl)-1H-indazole-3-carboxamide] | < 200% | 
CCc1ccc(NC(=O)c2nn(Cc3ccc(S(C)(=O)=O)cc3)c3ccccc23)cc1 [Compound 84, N-(4-ethylphenyl)-1-(4-(methylsulfonyl)benzyl)-1H-indazole-3-carboxamide] | 301 to 400% | 
CC(C)c1ccccc1NC(=O)c1nn(Cc2ccc(S(C)(=O)=O)cc2)c2ccccc12 [Compound 85, N-(2-isopropylphenyl)-1-(4-(methylsulfonyl)benzyl)-1H-indazole-3-carboxamide] | < 200% | 

Compound | activity at 10 µM | also measured
COc1cccc(NC(=O)c2nn(Cc3ccc(S(C)(=O)=O)cc3)c3ccccc23)c1 [Compound 86, N-(3-methoxyphenyl)-1-(4-(methylsulfonyl)benzyl)-1H-indazole-3-carboxamide] | < 200% | 
O=C(Nc1ccc2c(c1)OCO2)c1nn(Cc2ccccc2)c2ccccc12 [Compound 87, N-(benzo[d][1,3]dioxol-5-yl)-1-benzyl-1H-indazole-3-carboxamide] | < 200% | 
CS(=O)(=O)c1ccc(Cn2nc(C(=O)Nc3ccc(O)cc3)c3ccccc32)cc1 [Compound 88, N-(4-hydroxyphenyl)-1-(4-(methylsulfonyl)benzyl)-1H-indazole-3-carboxamide] |  | activity at 3 µM: < 200%
CS(=O)(=O)c1ccc(Cn2nc(C(=O)Nc3ccc(Cl)cc3)c3ccccc32)cc1 [Compound 89, N-(4-chlorophenyl)-1-(4-(methylsulfonyl)benzyl)-1H-indazole-3-carboxamide] | 201 to 300% | 
CS(=O)(=O)c1ccc(Cn2nc(CNc3ccc4c(c3)OCO4)c3ccccc32)cc1 [Compound 90, N-((1-(4-(methylsulfonyl)benzyl)-1H-indazol-3-yl)methyl)benzo[d][1,3]dioxol-5-amine] |  | activity at 0.3 µM (test compound concentration 0.3 μM): < 200%
CC(C)c1ccc(Cn2nc(C(=O)Nc3ccc(S(C)(=O)=O)cc3)c3ccccc32)cc1 [Compound 91, 1-(4-isopropylbenzyl)-N-(4-(methylsulfonyl)phenyl)-1H-indazole-3-carboxamide] | < 200% | 
O=C(Nc1ccc2c(c1)OCO2)c1nn(CCc2ccc(C(=O)N3CCOCC3)cc2)c2ccccc12 [Compound 92, N-(benzo[d][1,3]dioxol-5-yl)-1-(4-(morpholine-4-carbonyl)phenethyl)-1H-indazole-3-carboxamide] |  | activity at 3 µM: < 200%
O=C(Nc1ccc2c(c1)OCO2)c1nn(Cc2ccc(C(=O)N3CCCCC3)cc2)c2ccccc12 [Compound 93, N-(benzo[d][1,3]dioxol-5-yl)-1-(4-(piperidine-1-carbonyl)benzyl)-1H-indazole-3-carboxamide] | < 200% | 
CS(=O)(=O)c1ccc(Cn2nc(C(=O)Nc3ccc(F)cc3)c3ccccc32)cc1 [Compound 94, N-(4-fluorophenyl)-1-(4-(methylsulfonyl)benzyl)-1H-indazole-3-carboxamide] | < 200% | 
CS(=O)(=O)c1ccc(Cn2nc(-c3nc4ccc(Cl)cc4o3)c3ccccc32)cc1 [Compound 95, 6-chloro-2-(1-(4-(methylsulfonyl)benzyl)-1H-indazol-3-yl)benzo[d]oxazole] | < 200% | 
CC(C)c1cccc(NC(=O)c2nn(Cc3ccc(S(C)(=O)=O)cc3)c3ccccc23)c1 [Compound 96, N-(3-isopropylphenyl)-1-(4-(methylsulfonyl)benzyl)-1H-indazole-3-carboxamide] | < 200% | 
O=C(Nc1ccc2c(c1)OCO2)c1nn(Cc2ccncc2)c2ccccc12 [Compound 97, N-(benzo[d][1,3]dioxol-5-yl)-1-(pyridin-4-ylmethyl)-1H-indazole-3-carboxamide] | < 200% | 
CC(C)c1nsc(NC(=O)c2nn(Cc3ccc(S(C)(=O)=O)cc3)c3ccccc23)n1 [Compound 98, N-(3-isopropyl-1,2,4-thiadiazol-5-yl)-1-(4-(methylsulfonyl)benzyl)-1H-indazole-3-carboxamide] | < 200% | 
CS(=O)(=O)c1ccc(Cn2nc(C(=O)Nc3ccc4ncccc4c3)c3ccccc32)cc1 [Compound 99, 1-(4-(methylsulfonyl)benzyl)-N-(quinolin-6-yl)-1H-indazole-3-carboxamide] | 201 to 300% | 
O=C(Nc1ccc2c(c1)OCO2)c1nn(Cc2cccc(C(=O)N3CCOCC3)c2)c2ccccc12 [Compound 100, N-(benzo[d][1,3]dioxol-5-yl)-1-(3-(morpholine-4-carbonyl)benzyl)-1H-indazole-3-carboxamide] | < 200% | 
CS(=O)(=O)c1ccc(Cn2nc(C(=O)Nc3ccc(S(C)(=O)=O)cc3)c3ccccc32)cc1 [Compound 101, 1-(4-(methylsulfonyl)benzyl)-N-(4-(methylsulfonyl)phenyl)-1H-indazole-3-carboxamide] | < 200% | 
CS(=O)(=O)c1ccc(Cn2nc(C(=S)Nc3ccc4c(c3)OCO4)c3ccccc32)cc1 [Compound 102, N-(benzo[d][1,3]dioxol-5-yl)-1-(4-(methylsulfonyl)benzyl)-1H-indazole-3-carbothioamide] | 201 to 300% | 
